Reference: a compilation of properties of binary mixtures (doi:10.1016/j.jct.2022.106909)

Assay: xn = mol fraction of the nth substance listed
Conditions: 100 kPa

CC(=O)[O-].Cn1cc[n+](CCO)c1 + O
viscosity [mPa·s]
Conditions | 288.15 K | 293.15 K | 298.15 K | 303.15 K | 308.15 K | 313.15 K | 318.15 K | 323.15 K | 328.15 K | 333.15 K
x1 = 0.8317 | 73.1 | 54.2 | – | – | – | 20.52 | 16.8 | 13.96 | 11.73 | 9.95
x1 = 0.8632 | 95.7 | 71.8 | 53.8 | 41.9 | 32.2 | – | 20.74 | 17.07 | 14.25 | 12.06
x1 = 0.8712 | 102.6 | 74.7 | – | – | 33.3 | – | 21.56 | 17.7 | – | 12.4
x1 = 0.8818 | 112.8 | 83.4 | 62 | 47.1 | – | – | 23.58 | – | 16.02 | –
x1 = 0.9003 | 127.4 | – | 69.5 | 52.7 | 40.8 | 32.2 | 25.9 | 21.33 | 17.64 | –

CCC(=O)[O-].C[n+]1ccn(CCO)c1 + O
viscosity [mPa·s]
Conditions | 288.15 K | 293.15 K | 298.15 K | 303.15 K | 308.15 K | 313.15 K | 318.15 K | 323.15 K | 328.15 K | 333.15 K
x1 = 0.7595 | 173 | 126 | – | 70.4 | 57.5 | 45.1 | 36.6 | 30.3 | 25.1 | 21.1
x1 = 0.8082 | 194 | 145 | 108.2 | 80.5 | 65.2 | 48.5 | 38.9 | – | – | 22.2
x1 = 0.842 | 217 | 157 | – | 88.5 | 68.6 | 50.9 | – | 33.2 | 28.2 | 22.7
x1 = 0.8991 | 243 | 178 | 132 | 101.3 | – | 54 | 42.9 | – | 30.2 | –
x1 = 0.9102 | 248 | 184 | 136 | 103.7 | 78.5 | 54.9 | 43.6 | 35.1 | – | 23.9
